Experimental findings from patent US20050288359A1, “Agents and methods for the treatment of disorders associated with oxidative stress” (Monash University, priority 2002, published 2005) are described below.

Data set [1] has as its system neonatal mouse fibroblasts. Put plainly: Oxidant stress-induced cell death of fibroblasts (LDH release). The class given is cell-based. The procedure: FIG. 2 is a plot of the oxidant stress-induced cell death of neonatal mouse fibroblasts exposed to paraquat. Cells (5×10^3 per well) were treated overnight with freshly prepared paraquat or peroxynitrite. Culture medium from wells was assayed for lactate dehydrogenase (LDH) release as a marker of cytotoxicity. […] Values represent means±SEMs of triplicate wells, *P<0.05 difference from untreated cells. The x-axis represents concentration of Paraquat and Peroxynitrite in μM.
(§1) We developed two cell culture systems that can be used to screen drugs that prevent cell death induced by oxidant stress (FIG. 3, Model A) and excitotoxicity (FIG. 4, Model B). In model A, we utilize cultured fibroblasts that are exposed to paraquat that induces significant death at 10 μM (see FIG. 3). In model B we utilize the NSC-34 motor neuron cell line that can be induced to degenerate via the glutamate excitotixic pathway using the specific agonist fluorowillardine or FW (see FIG. 4).

Data set [2] in a line: In vitro antioxidant assay: oxidation of linoleic acid to conjugated diene hydroperoxide, free radical initiator AAPH, absorbance at 234 nm. The class given is biochemical. The text has this:
Lipid oxidation can usually be prevented by the addition free radical scavengers (FRS), more commonly known as antioxidants. Their role is to turn reactive and harmful molecules such as hydroxy, nitroxy and superoxide radicals into innocuous molecules that can be passed or converted by biological processes. One of the main pathways that lead to apoptosis in cells is oxidative stress. This event is a product of the action of these harmful radicals on the cell walls and membranes, leading to their breakdown. In terms of the antioxidant evaluation (Scheme 1), […] was utilised as a free radical initiator […], and the efficiency was calculated based on the formation of a conjugated diene hydroperoxide generated through the oxidation of linoleic acid in the presence and absence of a free radical scavenger. The conjugated diene hydroperoxide mimics the products of cellular oxidative stress imposed on the cell wall. The antioxidant can act at any stage of the reaction to stop or slow down the formation of the conjugated diene by reacting with the appropriate radicals (Scheme 1).
A convenient test to determine the efficiency of antioxidants in aqueous systems was setup using 2,2′-azobis(2-amidinopropane).2HCl ([…]) as a free radical initiator (Scheme 1). The production of conjugated diene hydroperoxide (LOOH) generated through the oxidation of linoleic acid in an aqueous system at 37° C. is monitored at 234 nm for 15 minutes using a Cary 100 UV-Vis spectrophotometer.
The efficiency is determined according to a standard, that is the generation of free radicals in the absence of an antioxidant. Efficiency is then calculated using the following equation: Efficiency (%)=1−[K2/K1]×100 Where: • K1=rate of oxidation of standard (no antioxidant)=[difference in absorbance]/[time (sec)] • K2=rate of oxidation with antioxidant=[difference in absorbance]/[time (sec)]
Prior to testing the efficiency of the compounds of the present invention, a number of well known antioxidants including vitamin E and ascorbic acid were tested. Each of the tests for vitamin E and ascorbic acid gave similar results to those presented in the literature. A number of other variables were tested including the amounts of antioxidant, substrate (linoleic acid) and initiator (AAPH). The optimal volumes are shown below: • 2.78 ml 0.05M phosphate buffer pH 7.4 • 30 ul of linoleic acid dispersion stock • 10 ul of 0.01M antioxidant stock
150 ul of 40 mM […] stock
When testing the efficiency of compounds of the present invention in the presence and absence of Ca^2+, HEPES buffered saline was used instead of the standard phosphate buffer and CaCl2 was used as a source of calcium ions.

Data set [3] deals with NSC-34D motor neuron cell line. The data set is described as follows: Excitotoxic cell death of motor neuron cell line (MTT reduction). The format is cell-based. To be noted: exposed for 72 hours. The method, then: FIG. 3 is a plot showing the effect of (S)-5-fluorowillardiine (“(S)-5-FW”) on survival (MTT reduction) of NSC-34D motor neuron cell line. These cells were cultured at 1×10^4 cells/well for 48 hours in DMEM/F-12 with 1% (v/v) FCS and then exposed to various concentrations of (S)-5-FW for 72 hours. MTT solution (0.5 mg/ml) was added to cultures for 2 hours, cells were solubilised and MTT reduction quantified as a percentage of […]. Statistically significant differences from control (zero (S)-5-FW) were defined using one-way ANOVA (*P<0.05, ***P<0.001).
as §1

[4] abbreviates: 0.05M phosphate buffer pH 7.4, 37° C., 15 minutes, antioxidant stock 0.01 M, final concentration 33.3 μM.
The mark [5] stands for this setting: HBS with calcium (67%), CaCl2 as calcium source, solvent methanol or DMSO (33%).
The mark [6] stands for this setting: HBS without calcium (67%), solvent methanol or DMSO (33%).

Like-named read-outs stand apart in the source and are kept apart here.

Consider `C[n+]1ccc(-c2cc[n+](C)cc2)cc1` [paraquat], for which, in data set [1] (5×10^3 cells per well, treated overnight, high doses), the “Cell death (LDH release as marker of cytotoxicity)” value is on record as “induced significant cell death”. In addition, the “Concentration that induces significant death of cultured fibroblasts” value in data set [1] (model A, oxidant stress) came to 10 µM.
Take `O=C(O)CN(CC(=O)O)c1ccccc1OCCOc1ccccc1N(CC(=O)O)CC(=O)O` [compound (4), bis(o-aminophenoxy)ethane-N,N,N′,N′-tetraacetic acid]: the figures for the Efficiency in data set [2] (setting [4]), in data set [2] (setting [5]) and in data set [2] (setting [6]) were 83%, 93% and 93%, respectively.
As to `O=NOO` [peroxynitrite], the “Cell death (LDH release as marker of cytotoxicity)” value in data set [1] is “not peroxynitrite induced significant cell death”.
In the case of `N[C@@H](Cn1cc(F)c(=O)[nH]c1=O)C(=O)O` [(S)-5-FW, (S)-5-fluorowillardiine], the “Concentration of maximal cell death effect” value in data set [3] came out at 1000 µM. For the same molecule, the “Effect on survival (MTT reduction)” value in data set [3] (various concentrations) was “significant cell death in concentration dependent manner”.
Consider `CCOC(=O)CN(CC(=O)OCC)c1ccccc1OC` [(5), N,N-bis(ethoxycarbonylmethyl)o-anisidine], for which the Efficiency in data set [2] (setting [4]) stood at 47%.
In data set [2] (setting [4]), “Bis[2-(bis-ethoxycarbonylmethyl)aminophenoxy]ethane [compound (3)]” showed an Efficiency of 20%.
Regarding Vitamin E, the Efficiency in data set [2] (setting [4]) was 93%; in data set [2] (setting [5]) it was 94%; in data set [2] (setting [6]), 90%.
Consider `O=C1O[C@H]([C@@H](O)CO)C(O)=C1O` [Ascorbic Acid], for which the Efficiency in data set [2] (setting [4]) was 74%.
On to `COc1ccccc1N(CC(=O)O)CC(=O)O` [(6), N,N-bis(acetic acid)o-anisidine], for which the figures for the Efficiency in data set [2] (setting [4]), in data set [2] (setting [5]) and in data set [2] (setting [6]) were 43%, 35% and 46%, respectively.
